Source: patent US20250262192A1, “PROGNOSTIC PATHWAYS FOR HIGH RISK SEPSIS PATIENTS” (KONINKLIJKE PHILIPS N.V., priority 2021, published 2025)
Where “and” joins values, the source holds several entries; their conditions need not be identical. Equal entries are not always repeated. Entries after “also recorded” stand apart in the source; their conditions may differ.

Tests used:
[1] = system: AR signaling pathway; test: THP-1 sepsis treatment model, qPCR-based STP activity score; type: cell-based; conditions: for Effect on AR PAS in LPS-stimulated THP-1 monocytes: THP-1 monocyte sepsis treatment model (Table 11); for Average AR STP activity score: 24 hours
Description: (§1) In the treatment model the pathway inhibitor and LPS were added at the same time and the THP-1 cells were incubated for 24 hours prior to isolating RNA and determining pathway activities.
(§2) For the first application, THP-1 cells were pre-incubated for 24 hours with the drug of choice, and subsequently LPS was added for 24 hours. For the treatment application, the drug and LPS were added simultaneously to the cells for 24 hours. Importantly: Some drugs needs processing in the body to become effective, this is the case for some of the androgen receptor (AR) pathway inhibitors, such as bicalutamide. In this case we have also tested the active variant of the drug (in the case of bicalutamide: (R-)bicalutamide).
(§3) LPS is considered the main mediator of the sepsis symptoms. An in vitro experiment was designed where monocytes were stimulated with LPS and subsequently treated with a variety of inhibitors. Monocytes were chosen as they have been described to play a major role in sepsis, see for example Sukhacheva, [34], Clinical Laboratory Int. 26 Aug.
(§4) Sepsis treatment model: For the treatment application, the drug and LPS were added simultaneously to the cells for 24 hours. Compounds and concentrations are described in Table 11 and Table 12 for healthy volunteer PBMCs.
(§5) After stimulation cells were harvested and RNA was extracted using the RNeasy mini kit (Qiagen, 74104). qPCR-based STP activity scores were calculated using the Philips Research OncoSignal platform (www.philips.com/oncosignal), as described herein.
(§6) Two concentrations of LPS 0.5 and 5 ng/ml were used in the experiments, furthermore for the THP-1 cell line an higher passage number (px-53-55) and a lower passage number (px-13-15) were used (Table 11). the THP-1 cell line with the lower passage was more reactive towards LPS activation compared to the higher passage number (data not shown).

[2] = system: TGFbeta signaling pathway; test: as above; type: cell-based; conditions: for Effect on TGFbeta PAS in LPS-stimulated THP-1 monocytes: THP-1 monocyte sepsis treatment model (Table 11); for Average TGFb STP activity score: 24 hours
Description: as §1, §2, §3, §4, §5, §6

[3] = system: AR pathway; test: PBMCs of healthy volunteers stimulated with LPS with or without drugs, pathway activity score; type: cell-based, human; conditions: for Healthy volunteers showing AR PAS decrease: experiment 2, PBMCs, LPS 0.5 ng/ml + drug, Etanercept: not significantly; for AR PAS: PBMCs of individual healthy volunteers
Description: as §4
(§7) PBMC samples from healthy volunteers and sepsis patients were obtained via Tissue solutions. Briefly, cryopreserved PBMCs were first washed with washing buffer (PBS/1% BSA/2 mM EDTA), centrifuged and pellet resuspended in culture medium (RPM11640 without phenol red+8.5% charcoal stripped FBS+1% Glx+1% p/s). 0.5·10^5-1·10^6 cells were seeded per well in 24 wells plate and rested for 1 hour before treatment experiment. 10 PBMC samples from healthy donors were used to; (1) measure the baseline pathway levels, (2) activate with LPS
(§8) PBMCs of healthy volunteers were stimulated with 5 ng/ml LPS for 24 hours in combination with (R)-Bicalutamide and (R)-Bicalutamide+Vactosertib (experiment 1). In experiment 2, (R)-Bicalutamide and etanercept were tested with 0.5 ng/ml LPS (Table 12A for exp 1 and Table 12B for exp 2).

[4] = system: TGFbeta pathway; test: as above; type: cell-based, human; conditions: for Healthy volunteers showing TGFbeta PAS decrease: experiment 2, PBMCs, LPS 0.5 ng/ml + drug, Etanercept: not significantly; for TGFbeta PAS: PBMCs of individual healthy volunteers
Description: as §4, §7, §8

[5] = system: AR pathway; test: PBMCs of sepsis patients treated in vitro 24 hours with inhibitors, pathway activity score; type: cell-based, human; set-up: AR Pathway activity scores of sepsis PBMC patients: scale not given here
Description: as §7
(§9) Sepsis treatment model: PBMC derived from sepsis patients (n=20) were treated 24 hours with compounds, DMSO or combination of compounds. (PBMC from healthy and sepsis patients are originating from the same hospital to minimize bias in sample prep). After stimulation cells were harvested and RNA was extracted using the RNeasy mini kit (Qiagen, 74104). qPCR was performed using the Philips Research OncoSignal platform.
(§10) In total 18 PBMCs sepsis samples were treated for 24 hours with selected inhibitors (and combinations), 6 patient samples per experiment.

[6] = system: TGFbeta pathway; test: as above; type: cell-based, human; set-up: scale not given here
Description: as §7, §9, §10

[7] = system: AR cellular signaling pathway; test: THP-1 sepsis prevention model, qPCR-based STP activity score; type: cell-based
[8] = system: TGFbeta cellular signaling pathway; test: as above; type: cell-based
[9] = system: AR pathway; test: THP-1 cell line stimulated with LPS or DHT and inhibited with Bicalutamide or Enzalutamide (Table 9A); type: cell-based; conditions: THP-1, stimulated 5 hours and subsequently inhibited
Description: (§11) LPS is considered the main mediator of the sepsis symptoms. An in vitro experiment was designed where monocytes were stimulated with LPS and subsequently treated with a variety of inhibitors. […] 26 Aug.
as §5

[10] = system: TGFBeta pathway; test: as above; type: cell-based; conditions: THP-1, stimulated 5 hours and subsequently inhibited
Description: as §11, §5

[11] = system: AR pathway; test: MOLT-4 lymphoid cell line stimulated with LPS or DHT and inhibited with Bicalutamide or Enzalutamide (Table 9B); type: cell-based; conditions: stimulated 5 hours and subsequently inhibited
Description: (§12) MOLT-4 (ATCC CRL-1582) were cultured in RPMI1640 media, supplemented with 10% FBS, 1% glutamax and 1% pen strep at 37° C. 5% CO2.
as §5

[12] = system: TGFBeta pathway; test: as above; type: cell-based; conditions: MOLT-4, stimulated 5 hours and subsequently inhibited
Description: as §12, §5

[13] = THP-1 px 13-15, LPS 0.5 ng/ml alone or with Etanercept 10 ug/ml
[14] = THP-1 px 13-15, LPS 0.5 ng/ml alone or with compound, Vactosertib 1 uM, Etanercept 1 ug/ml, R-bicalutamide 25 uM + Etanercept 0.1 ug/ml, R-bicalutamide 25 uM + Filgotinib 10 uM
[15] = experiment 2, LPS 0.5 ng/ml alone, + Etanercept 10 ug/ml, or + (R)-Bicalutamide 25 uM
[16] = EXP 1, individual patient samples, Vactosertib 1 uM, Vactosertib 1 uM + R-bicalutamide 25 uM, Etanercept 10 ug/ml, R-bicalutamide 25 uM
[17] = THP-1 px 13-15, LPS 0.5 ng/ml alone or with compound, (R)-Bicalutamide 25 uM, N-desmethyl Enzalutamide 2 uM, N-Desmethyl-Apalutamide 3 uM
[18] = 24 hrs Vactosertib or DMSO, then 24 hrs LPS
[19] = 24 hrs Vactosertib, then 24 hrs PBS
[20] = THP-1 px 13-15, LPS 5 ng/ml alone or with Resatorvid 10 uM
[21] = EXP 2, individual patient samples, Resatorvid 10 uM, D4-abiraterone 10 uM, A-485 100 nM, Galunisertib 10 uM
[22] = THP-1 px 53-55, LPS 0.5 ng/ml alone or with compound, (R)-Bicalutamide 25 uM, Ketodarolutamide 10 uM, D4-abiraterone 10 uM
[23] = experiment 1, PBMCs, LPS 5 ng/ml + drug
[24] = experiment 1, LPS 5 ng/ml 24 hours alone, + (R)-Bicalutamide 25 uM, or + (R)-Bicalutamide 25 uM + Vactosertib 1 uM
[25] = DHT (25 nM) alone or + Bicalutamide (5 uM) or Enzalutamide (5 uM)
[26] = LPS (50 ng/mL) alone or + Bicalutamide (5 uM) or Enzalutamide (5 uM)

Etanercept
Effect on AR PAS in LPS-stimulated THP-1 monocytes [1]: could reduce; also recorded: could be lowered
Average AR STP activity score [1, 13]: 6.33 normalized scores
Average AR STP activity score [1, 14]: 5.00 normalized scores and 6.00 normalized scores
Effect on TGFbeta PAS in LPS-stimulated THP-1 monocytes [2]: could lower; also recorded: could be lowered
Average TGFb STP activity score [2, 13]: 11.33 normalized scores
Average TGFb STP activity score [2, 14]: 9.67 normalized scores and 11.67 normalized scores
Healthy volunteers showing AR PAS decrease [3]: 2 out of 4
AR PAS [3, 15]: 21 and 31 (2×) and 18
Healthy volunteers showing TGFbeta PAS decrease [4]: 3 out of 4
TGFbeta PAS [4, 15]: 29 and 34 and 31 (2×)
AR Pathway activity scores of sepsis PBMC patients [5, 16]: 28 and 20
TGFbeta Pathway activity scores of sepsis PBMC patients [6, 16]: 42 and 30 and 31

N#Cc1ncc(N2C(=O)C3(CCC3)N(c3ccc(C(N)=O)c(F)c3)C2=S)cc1C(F)(F)F [N-Desmethyl-Apalutamide]
Effect on AR PAS in LPS-stimulated THP-1 monocytes [1]: could reduce
Average AR STP activity score [1, 17]: 7.33 normalized scores
Average TGFb STP activity score [2, 17]: 13.33 normalized scores

Cc1cccc(-c2[nH]c(CNc3ccccc3F)nc2-c2ccc3ncnn3c2)n1 [Vactosertib]
Average PAS AR [7, 18]: 17.1 normalized scores
Average PAS AR [7, 19]: 3.8 normalized scores
Effect on the AR signaling pathway ([7]; Vactosertib pretreatment followed by LPS): No effect
Average PAS TGFbeta [8, 18]: 9.3 normalized scores
Average PAS TGFbeta [8, 19]: 1.7 normalized scores
Average AR STP activity score [1, 14]: 8.67 normalized scores
Average TGFb STP activity score [2, 14]: 12.00 normalized scores
AR Pathway activity scores of sepsis PBMC patients [5, 16]: 21 and 22
Patients showing reduction in the AR pathway (not significant) ([5]; sepsis patient PBMCs, Etanercept 10 ug/ml in combination): 2/3
TGFbeta Pathway activity scores of sepsis PBMC patients [6, 16]: 31

CCOC(=O)C1=CCCC[C@H]1S(=O)(=O)Nc1ccc(F)cc1Cl [Resatorvid]
Effect on AR PAS in LPS-stimulated THP-1 monocytes [1]: could reduce; also recorded: could be lowered
Average AR STP activity score [1, 20]: 3.67 normalized scores
Effect on TGFbeta PAS in LPS-stimulated THP-1 monocytes [2]: could lower; also recorded: could be lowered
Average TGFb STP activity score [2, 20]: 8.00 normalized scores
AR Pathway activity scores of sepsis PBMC patients [5, 21]: 24 and 31
TGFbeta Pathway activity scores of sepsis PBMC patients [6, 21]: 31 and 37 and 35 and 34

CC(=O)c1cc(C(=O)N[C@@H](C)Cn2ccc(-c3ccc(C#N)c(Cl)c3)n2)[nH]n1 [Ketodarolutamide]
Effect on AR PAS in LPS-stimulated THP-1 monocytes [1]: could reduce
Average AR STP activity score [1, 22]: 2.33 normalized scores
Average TGFb STP activity score [2, 22]: 12.00 normalized scores

C[C@]12CCC(=O)C=C1CC[C@@H]1[C@@H]2CC[C@]2(C)C(c3cccnc3)=CC[C@@H]12 [D4-abiraterone]
Effect on AR PAS in LPS-stimulated THP-1 monocytes [1]: could reduce
Average AR STP activity score [1, 22]: 2.67 normalized scores
Effect on TGFbeta PAS in LPS-stimulated THP-1 monocytes [2]: could lower
Average TGFb STP activity score [2, 22]: 11.67 normalized scores
AR Pathway activity scores of sepsis PBMC patients [5, 21]: 24 (3×) and 33
TGFbeta Pathway activity scores of sepsis PBMC patients [6, 21]: 32 and 41 and 36 and 40

C[C@](O)(CS(=O)(=O)c1ccc(F)cc1)C(=O)Nc1ccc(C#N)c(C(F)(F)F)c1 [(R)-Bicalutamide]
Effect on AR PAS in LPS-stimulated THP-1 monocytes [1]: could reduce
Average AR STP activity score [1, 17]: 6.67 normalized scores
Average AR STP activity score [1, 22]: 1.67 normalized scores
Effect on TGFbeta PAS in LPS-stimulated THP-1 monocytes [2]: could lower
Average TGFb STP activity score [2, 17]: 14.00 normalized scores
Average TGFb STP activity score [2, 22]: 11.67 normalized scores
Healthy volunteers showing AR decrease [3, 23]: 3 out of 6
AR PAS [3, 24]: 29 and 26 (2×) and 30 and 25 and 21
Healthy volunteers showing AR PAS decrease [3]: 3 out of 4
AR PAS [3, 15]: 26 and 28 and 30 and 24
Healthy volunteers showing TGFbeta decrease [4, 23]: 3 out of 6
TGFbeta PAS [4, 24]: 29 and 32 and 35 and 31 and 27 and 40
Healthy volunteers showing TGFbeta PAS decrease [4]: 3 out of 4
TGFbeta PAS [4, 15]: 31 and 35 and 33 and 32
AR Pathway activity scores of sepsis PBMC patients [5, 16]: 21
TGFbeta Pathway activity scores of sepsis PBMC patients [6, 16]: 31 and 32

CC1(C)C(=O)N(c2ccc(C#N)c(C(F)(F)F)c2)C(=S)N1c1ccc(C(N)=O)c(F)c1 [N-desmethyl Enzalutamide]
Effect on AR PAS in LPS-stimulated THP-1 monocytes [1]: could reduce
Average AR STP activity score [1, 17]: 6.67 normalized scores
Average TGFb STP activity score [2, 17]: 13.33 normalized scores

CNC(=O)c1ccc(N2C(=S)N(c3ccc(C#N)c(C(F)(F)F)c3)C(=O)C2(C)C)cc1F [Enzalutamide]
AR STP activity [9, 25]: 6.0 normalized scores
AR STP activity [9, 26]: 20.4 normalized scores
TGFbeta STP activity [10, 25]: 17.3 normalized scores
TGFbeta STP activity [10, 26]: 33.6 normalized scores
AR STP activity [11, 25]: 7.3 normalized scores
AR STP activity [11, 26]: 6.3 normalized scores
TGFbeta STP activity [12, 25]: 14.1 normalized scores
TGFbeta STP activity [12, 26]: 14.1 normalized scores

Cc1cccc(-c2nn3c(c2-c2ccnc4ccc(C(N)=O)cc24)CCC3)n1 [Galunisertib]
AR Pathway activity scores of sepsis PBMC patients [5, 21]: 23

O=C(Nc1nc2cccc(-c3ccc(CN4CCS(=O)(=O)CC4)cc3)n2n1)C1CC1 [Filgotinib]
Effect on TGFbeta PAS in LPS-stimulated THP-1 monocytes [2]: could lower
